How the values were obtained:
human fibroblasts = human fibroblasts in vitro; cited from earlier work
[1] = test system: Wistar rats (DNCB-induced atopic dermatitis); assay: Histologic assessment of ear skin in atopic dermatitis rat model; assay type: in vivo; details: lesions treated with the composition of urolithin A; day 32; FIG. 8
Description: Wistar rats aged 5-6 weeks (at the start of the experiment) kept under standard conditions with free access to feed and water were used for the tests. The animals were divided into 5 groups, 8 individuals in each group. To prepare 2,4-dinitrochlorobenzene (DNCB) composition inducing inflammation, DNCB was dissolved in 70% ethanol to a final concentration of 1.5% (w/v). Therapeutic composition was an ointment based on white petrolatum with 0.2% or 1.0% urolithin A added. The control ointment was white petrolatum without addition of urolithin A. The induction of chronic atopic dermatitis involved local 9-fold infiltration with 60 μl 1.5% 2,4-dinitrochlorobenzene (DNCB) on each (external and internal) surface of the right ear over 3 weeks (3 times a week). Negative control was the right ear of rats without induction inflammation. Treatment of atopic dermatitis with 0.2% or 1.0% urolithin composition and white petrolatum (control) or 1.0% hydrocortisone composition (positive control) was started eight days after sensitization—one day before the fourth application of DNCB. Ointments with appropriate for given group drug added were applied in a total volume of about 20 μl to each ear surface one day before and 6 hours after each DNCB application (for a period of 3 weeks). […]

[2] = test system: Wistar rats (DNCB-induced atopic dermatitis); assay: Pruritus level (scratch reflexes) in DNCB-induced atopic dermatitis rat model; assay type: in vivo
Description: Wistar rats aged 5-6 weeks (at the start of the experiment) kept under standard conditions with free access to feed and water were used for the tests. The animals were divided into 5 groups, 8 individuals in each group. To prepare 2,4-dinitrochlorobenzene (DNCB) composition inducing inflammation, DNCB was dissolved in 70% ethanol to a final concentration of 1.5% (w/v). Therapeutic composition was an ointment based on white petrolatum with 0.2% or 1.0% urolithin A added. The control ointment was white petrolatum without addition of urolithin A. The induction of chronic atopic dermatitis involved local 9-fold infiltration with 60 μl 1.5% 2,4-dinitrochlorobenzene (DNCB) on each (external and internal) surface of the right ear over 3 weeks (3 times a week). Negative control was the right ear of rats without induction inflammation. Treatment of atopic dermatitis with 0.2% or 1.0% urolithin composition and white petrolatum (control) or 1.0% hydrocortisone composition (positive control) was started eight days after sensitization—one day before the fourth application of DNCB. Ointments with appropriate for given group drug added were applied in a total volume of about 20 μl to each ear surface one day before and 6 hours after each DNCB application (for a period of 3 weeks). The negative control group consisted of rats without induced inflammation and treated with white petrolatum in a regimen analogous to the composition of urolithin A or hydrocortisone. Measurement of pruritus level (as measured by scratching reflexes) was evaluated as the total frequency of scratch reflexes during 10 minutes immediately after DNCB application on days 0, 4, 8, 12, 16, 20, 24, 28 and 32 of the experiment). Scratching was defined as a single or series of several reflexes of scratching with a paw directed at the site of DNCB application. The experimental results obtained were analyzed using the Statistica 7.1 program (StatSoft, Inc., Tulsa, OK, USA) and presented as mean values±SE. Statistical significance was set at P≤0.05. The results with established normal distribution in the D'Agostin and Pearson test were prepared using two- or three-factor analysis of variance (ANOVA). Parametric post-hoc analysis for individual time points was performed using the Bonferroni test.

ERK1/2 = ERK1/2 phosphorylation in THP-1 derived macrophages (Western blotting); assay type: cell-based, human; details: 40 μM; LPS 10 ng/mL, 35 min; FIG. 15
Description: Monocytes of the THP-1 line were cultured in RPMI 1640 medium supplemented with 10% FBS and 2 mM glutamine. For transformation of monocytes into macrophages, the cells were treated with 12.5 ng/mL PMA (phorbol 12-myristate 13-acetate) for 48 hours, then washed and incubated for 24 hours in a culture medium without PMA. After this time, urolithin A, urolithin B, iso-urolithin A and the corresponding glucuronides (GUA, GUB and GiUA) were added to the cells at a concentration of 40 μM. After 1 hour of incubation with the compounds, the cells were stimulated with LPS from Escherichia coli (10 ng/mL). To assess the level of TNF-alpha production, the cells were incubated for 6 hours, to assess the expression of mRNA for TNF-alpha, the cells were incubated for 24 hours, to assess the effect on ERK1/2 phosphorylation, the cells were incubated for 35 minutes. […] The obtained results of experiments on in vitro models were analyzed using the Statistica 13 program (StatSoft, Inc., Tulsa, OK, USA) and presented as mean values±SEM. Statistical significance was set at P≤0.05. The results with established normal distribution in the D'Agostin and Pearson test were prepared using analysis of variance (ANOVA). Parametric post-hoc analysis was performed using Dunnett's test.

hyaluronidase = assay: Hyaluronidase activity, pharmacopoeial method (USP); assay type: biochemical; details: experiments by the inventors
Source text: US application US2010323985A discloses the use of a compound from the group of urolithins, urolithin B, as a component of a pharmaceutical or cosmetic preparation for topical and/or parenteral use. […] Urolithin B has been indicated as an example of one of hyaluronic acid degradation inhibitors, alone or in a mixture. With respect to the above, the inventors conducted experiments according to the pharmacopoeial method (USP), observing as a result no effect of urolithin A on hyaluronidase activity. […] Also, in the case of psoriasis, research is currently underway on effectiveness of hyaluronidase subcutaneous injections ([…] preparation; https://clinicaltrials.gov/ct2/show/NCT01987609).

[3] = animal model; oral and intravenous administration; cited from earlier work
[4] = following ingestion of food products rich in ellagitannins; cited from earlier work

SMILES: O=c1oc2cc(O)ccc2c2ccc(O)cc12 [urolithin A]
- Collagen synthesis (human fibroblasts): stimulated collagen synthesis
- Inhibition of fibroblast aging (human fibroblasts): no inhibition of fibroblast aging was found
- mRNA expression for matrix metalloproteinase-1 (human fibroblasts): inhibited the mRNA expression
- Histology of skin lesions [1]: Mild epidermal hyperplasia, infiltration of mononuclear cells (mast cells) and neutrophils. A slight infiltration of inflammatory cells around the blood vessels
- Inhibition of scratching reflexes, comparison of urolithin doses with each other ([2]; 0.2% vs 1%, p<0.05): more effective at a concentration of 1%
- Reduction in scratching rate, urolithin vs. hydrocortisone ([2]; overall effect, p<0.05): stronger
- Scratching rate (frequency of scratch reflexes) ([2]; topical ointment, urolithin A 0.2 and 1.0% (p<0.001), hydrocortisone 1% (p<0.01)): reduction in scratching rate
- Inhibition of scratching reflexes compared to hydrocortisone 1% ([2]; urolithin A 0.2% ointment, p=0.39): absence of significantly greater efficiency
- Inhibition of scratching reflexes compared to hydrocortisone 1% ([2]; urolithin A 1% ointment, p<0.05): significantly greater inhibition of scratching reflexes compared to hydrocortisone
- ERK1/2 kinase phosphorylation in THP-1 derived macrophages (ERK1/2): stimulation of ERK1/2 kinase phosphorylation
- Effect on hyaluronidase activity (hyaluronidase): no effect
- Toxicity [3]: no toxicity
- Concentration in feces, tissues, blood and urine [4]: ≤ 100 µM

From US12329738B2, “Urolithin A and a composition containing same for external use in inflammations of various etiologies” (WARSZAWSKI UNIWERSYTET MEDYCZNY, priority 2018, dated 2025)
